In paper PMC5107945, “Abscinazole-E3M, a practical inhibitor of abscisic acid 8′-hydroxylase for improving drought tolerance” (Scientific Reports, 2016):
Where two headings read alike, the source gives them in different places.

Tests used:
rice seedling growth = assay: Rice seedling elongation assay; assay type: in vivo, Oryza sativa L. cv. Nipponbare; details: 0.3 μM; 7 d
Experimental: The effects of (−)-Abz-T compounds were also tested on the early growth of rice seedlings to investigate whether the plant growth-retardant effect derived from UNI declined. […] This was the same trend observed for (−)-Abz-E2B[26]. […] Thus, the growth-retardant effects of (−)-Abz-T compounds may arise from an increase in the endogenous ABA level due to the CYP707A inhibition, although we cannot exclude the possibility that Abz-T compounds may inhibit off-target enzymes other than CYP707A and CYP701A.
Figure 4 Effects of (−)-Abz-T compounds on rice seedling growth compared with the effects of UNI and (−)-Abz-E2B. Seedlings grown on test media containing indicated concentrations of azole inhibitors for 7 d. Scale bars represent 10 mm. Compound 6 is also referred to as Abz-E3M.
For the rice seedling elongation assay, seven seeds (Oryza sativa L. cv. Nipponbare) were sterilised with reagent-grade EtOH for 5 min and washed with running tap water. They were then soaked in distilled water and incubated under continuous illumination at 25 °C for 3 d to germinate. The germinated seeds were then soaked in 2 mL of a test medium in a glass tube and grown under continuous illumination at 25 °C. When the seedlings were 7 d old, the length of the second leaf sheath was measured. All of the assays were conducted at least three times.

[1] = biological target: T1, Rice recombinant CYP701A6 (ent-kaurene oxidase) (Oryza sativa subsp. japonica, UniProt Q5Z5R4); assay: CYP701A6 inhibition assay (formation of end product KA); assay type: biochemical
T1 construct: made in house; host or cells: insect cells (baculovirus vector)
T1 sequence (Q5Z5R4 1-505): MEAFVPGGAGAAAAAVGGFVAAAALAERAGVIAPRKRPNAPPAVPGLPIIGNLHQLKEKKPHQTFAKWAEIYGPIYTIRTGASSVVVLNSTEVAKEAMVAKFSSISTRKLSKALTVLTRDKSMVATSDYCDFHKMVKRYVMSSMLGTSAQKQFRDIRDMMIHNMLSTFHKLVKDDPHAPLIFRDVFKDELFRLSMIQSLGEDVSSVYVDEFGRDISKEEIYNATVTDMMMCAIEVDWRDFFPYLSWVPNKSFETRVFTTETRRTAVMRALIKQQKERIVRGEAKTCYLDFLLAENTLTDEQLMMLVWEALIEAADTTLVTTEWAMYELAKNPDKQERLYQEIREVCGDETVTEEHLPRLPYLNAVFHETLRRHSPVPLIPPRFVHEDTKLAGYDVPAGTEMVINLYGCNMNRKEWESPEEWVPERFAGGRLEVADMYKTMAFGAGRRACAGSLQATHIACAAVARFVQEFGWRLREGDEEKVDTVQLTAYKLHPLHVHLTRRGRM
Experimental: To evaluate the enzymatic selectivity between CYP707A and CYP701A, we examined the inhibitory activity against recombinant rice containing CYP701A6 expressed in insect cells using a baculovirus vector. This enzyme catalyses all three steps to KA via the corresponding alcohol and aldehyde, and consequently, the kinetic analysis is very complicated. Therefore, we evaluate the IC50 value for the formation of the end product, KA, instead of the KI value.
Reaction mixtures, containing 0.058 μM of […] microsomes, ATR2 (0.115 U), ent-kaurene (final concentration of 10 μM), inhibitors (0 for control, 1.5–1,500 μM in 8 μL dimethylformamide), and 20 mM NADPH in 500 mM potassium phosphate buffer (pH 7.4), were incubated at 30 °C for 10 min. Reactions were initiated by adding NADPH and stopped by the addition of 100 μL of 1 M HCl. Abietic acid, as the internal standard, was then added to the reaction product, which was extracted with EtOAc (400 μL × 3). The organic phase was dried over Na2SO4 and concentrated in vacuo. To derivatize the reaction products, MeOH (50 μL) and trimethylsilyldiazomethane (2 M in 5 μL hexane) were added, and the reaction mixture was incubated at room temperature for 10 min. The organic solvent was removed under N2, and samples were adjusted to 150 μL with hexane before a gas chromatography-mass spectrometry analysis (QP2010-plus; Shimadzu Corp., Kyoto, Japan). The conditions were as follows: the column was DB-5ms (0.25 mm id × 15 m, 0.25 μm film thickness; Agilent J & W, Folsom, CA, USA), the carrier gas was He, the flow rate was 1.65 mL min^−1, the injection port temperature was 280 °C, splitless injection, and the programmed column temperature was a step gradient of 80 °C for 1 min, 80–200 °C at 18 °C min^−1, 200–210 °C at 2 °C min^−1, 210–280 °C at 30 °C min^−1, and then 280 °C for 3 min. The KA content was calculated from the area ratio of molecular and fragment ions of methyl KA (m/z 316, 273, and 257) to those of methyl abietate (m/z 316 and 256). The inhibition ratio was defined as [(A − B)/A] × 100, where A = the amount of methyl KA/methyl abietate when the inhibitor was absent from the reaction mixture (control), and B = the amount of methyl KA/methyl abietate when the inhibitor was present. All of the tests were conducted at least three times.

[2] = biological target: T2, Arabidopsis recombinant CYP707A3 (ABA 8′-hydroxylase) (Arabidopsis thaliana, UniProt Q9FH76); assay: CYP707A3 inhibition assay (decrease of enzymatic product PA); assay type: biochemical; details: Arabidopsis recombinant CYP707A3 expressed in E. coli; for IC50: 5 μM ABA as substrate, read-out: CYP707A IC50
T2 construct: made in house; host or cells: Escherichia coli (microsomal/membrane fraction)
T2 sequence (Q9FH76 1-463): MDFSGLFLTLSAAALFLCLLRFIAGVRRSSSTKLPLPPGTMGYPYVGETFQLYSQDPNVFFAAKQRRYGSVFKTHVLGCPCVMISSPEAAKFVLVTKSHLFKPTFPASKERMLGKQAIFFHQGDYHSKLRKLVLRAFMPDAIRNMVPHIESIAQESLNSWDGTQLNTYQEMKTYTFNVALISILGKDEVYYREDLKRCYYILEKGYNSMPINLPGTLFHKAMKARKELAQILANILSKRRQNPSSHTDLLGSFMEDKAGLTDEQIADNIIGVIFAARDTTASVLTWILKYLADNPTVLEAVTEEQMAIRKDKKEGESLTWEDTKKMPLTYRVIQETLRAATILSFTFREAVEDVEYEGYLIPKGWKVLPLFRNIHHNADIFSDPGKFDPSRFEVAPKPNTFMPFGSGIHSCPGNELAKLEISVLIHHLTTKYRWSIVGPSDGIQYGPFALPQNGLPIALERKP
Experimental: The inhibitory activities of Abz-T compounds against ABA 8′-hydroxylase were examined using recombinant Arabidopsis CYP707A3 co-expressed with Arabidopsis P-450 reductase (ATR1) in Escherichia coli[22]. The activity levels were evaluated based on the decrease in the amount of the enzymatic product, PA.
Reactions were initiated by adding NADPH, stopped by the addition of 25 μL of 1 M NaOH and then acidified with 50 μL of 1 M HCl. Reaction products were extracted by loading the mixture onto an Oasis HLB cartridge (1 mL, 30 mg; Waters Corp., Milford, MA, USA) and were washed with 1 mL of 10% MeOH in H2O (v/v) containing 1% acetic acid (AcOH, v/v). The enzyme products were then eluted with 1 mL of MeOH containing 1% AcOH, and the eluate was concentrated in vacuo. Each dried sample was then dissolved in 50 μL of MeOH, and a 20-μL volume was subjected to HPLC (Prominence; Shimadzu Corp., Kyoto, Japan). HPLC conditions were as follows: the octadecylsilyl column was composed of Hydrosphere C18 (150 × 6.0 mm, YMC Co., Ltd., Kyoto, Japan), and the solvent comprised 17% acetonitrile (MeCN) in H2O containing 0.05% AcOH (v/v). The flow rate was 1.0 mL min^−1, and detection was at 254 nm. Enzyme activity was evaluated by determining the amount of PA in control experiments prior to taking each set of measurements. The inhibition constants were determined using the Enzyme Kinetics module of the SigmaPlot 10 software (Systat Software, Inc., San Jose, CA, USA) after determining the inhibition mode by plotting the reaction velocity in the presence and absence of the inhibitor on a double-reciprocal plot. The inhibition ratio was defined as [(A − B)/A] × 100, where A = the amount of PA when the inhibitor was absent from the reaction mixture (control), and B = the amount of PA when the inhibitor was present. All of the tests were conducted at least three times.

[3] = system: ABA-responsive genes MAPKKK18, RD29A and RD29B; assay: qRT-PCR of ABA-responsive genes in Arabidopsis seedlings; assay type: in vivo, Arabidopsis (Columbia accession); details: 10-day-old seedlings, 6 h
Experimental: Figure 5 Effects of (−)-Abz-E3M on the expression levels of Arabidopsis ABA-responsive genes. Expression of MAPKKK18, RD29A and RD29B after treatment with (−)-Abz-E2B or (−)-Abz-E3M in the absence or presence of 0.25 μM ABA (n = 4, error bar represents s.d.).
Arabidopsis (Columbia accession) were grown for 10 d on agar plates containing 1/2 Murashige and Skoog (MS) and 0.5% sucrose at 22 °C under an 18/6-h light/dark cycle. Seedlings were incubated in the chemical solutions for 6 h. Total RNA from seedlings was isolated using the Plant RNA purification reagent (Thermo Fisher Scientific) according to the manufacturer’s instructions. cDNA was synthesised using the QuantiTec reverse transcription kit (Qiagen). Maize (cv. Gold rush, Sakata Seed Corporation) seedlings were grown in 100-mL pots containing 75 g of moist soil in a glass house. The root parts of the maize seedlings were washed with tap water and dipped in 100 μM (−)-Abz-E3M chemical solution containing 0.05% Tween-20 overnight. Total RNA from maize seedlings was isolated using an RNeasy mini kit (Qiagen) with the ‘on-column’ DNA digestion method. cDNA was synthesised using a High-Capacity cDNA Reverse Transcription Kit (Thermo Fisher Scientific). Real-time PCR using SYBR Premix Ex Taq™ II (Takara) was performed with Step One-Plus (Thermo Fisher Scientific). The primer sets are shown in Supplemental Table S1.

[4] = Rice recombinant CYP701A6 expressed in insect cells, 10 μM ent-kaurene, formation of KA, read-out: CYP701A IC50

| Molecule | Effect on elongation of rice seedlings (rice seedling growth) | IC50 [1] | IC50 [1, 4] | IC50 [2] | Expression of ABA-responsive genes MAPKKK18, RD29A and RD29B ([3]; absence of exogenous ABA) | Expression of ABA-responsive genes MAPKKK18, RD29A and RD29B ([3]; co-treatment with 0.25 μM ABA) | Ki ([2]; ABA 1–64 μM, read-out: CYP707A KI) |
| --- | --- | --- | --- | --- | --- | --- | --- |
| CC(C)(C)[C@H](O)/C(=C\c1ccc(Cl)cc1)n1cncn1 [UNI, S-uniconazole, reference compound] | strongly inhibited the elongation of rice seedlings | 57 nM | – | – | – | – | – |
| abscinazole-E2B [(+)-Abz-E2B, reference compound] | – | – | 1300 nM | 1100 nM | – | – | – |
| abscinazole-E2B [(−)-Abz-E2B, reference compound] | – | – | 1200 nM | 54 nM | did not induce the expression | enhanced the expression levels of ABA-responsive genes | 38 nM |
| abscinazole-E3M [(+)-6] | – | – | 1600 nM | 1200 nM | – | – | – |
